Experimental data published in the supplement of paper PMC10307832.

Experiments:
Assay in all cases: relative viability (nuclei count vs DMSO), 5 days (fraction); higher = more cells survive
VX-11e + Crizotinib = compound: CC1=CN=C(N=C1C2=CNC(=C2)C(=O)N[C@H](CO)C3=CC(=CC=C3)Cl)NC4=C(C=C(C=C4)F)Cl [VX-11e] + C[C@@H](Oc1cc(-c2cnn(C3CCNCC3)c2)cnc1N)c1c(Cl)ccc(F)c1Cl [Crizotinib] (partner 1 µM)
Procedure, shortened: (§1)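 For relative viability, nuclei counts in treated wells were divided by those in vehicle wells. Lung cancer cell lines had been pin-tool dosed in 1536-well plates the day after seeding and cultured for 5 days, then fixed and stained in one step (final 0.05% Triton X-100, 1% formaldehyde, 1 ug/ml Hoechst) and imaged at 4×. Doses were one drug alone or a fixed anchor-drug dose plus five library-drug doses (not always all listed) in √10 steps, and values are duplicate-plate medians.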

VX-11e + Vorinostat = compound: CC1=CN=C(N=C1C2=CNC(=C2)C(=O)N[C@H](CO)C3=CC(=CC=C3)Cl)NC4=C(C=C(C=C4)F)Cl [VX-11e] + O=C(CCCCCCC(=O)Nc1ccccc1)NO [Vorinostat] (partner 1 µM)
Procedure, shortened: as §1

VX-11e + Navitoclax = compound: CC1=CN=C(N=C1C2=CNC(=C2)C(=O)N[C@H](CO)C3=CC(=CC=C3)Cl)NC4=C(C=C(C=C4)F)Cl [VX-11e] + CC1(C)CCC(c2ccc(Cl)cc2)=C(CN2CCN(c3ccc(C(=O)NS(=O)(=O)c4ccc(N[C@H](CCN5CCOCC5)CSc5ccccc5)c(S(=O)(=O)C(F)(F)F)c4)cc3)CC2)C1 [Navitoclax] (partner 0.5 µM)
Procedure, shortened: as §1

VX-11e + Dasatinib = compound: CC1=CN=C(N=C1C2=CNC(=C2)C(=O)N[C@H](CO)C3=CC(=CC=C3)Cl)NC4=C(C=C(C=C4)F)Cl [VX-11e] + Cc1nc(Nc2ncc(C(=O)Nc3c(C)cccc3Cl)s2)cc(N2CCN(CCO)CC2)n1 [Dasatinib] (partner 0.075 µM)
Procedure, shortened: as §1

Cell Line	relative viability (VX-11e + Crizotinib; first compound 0.04 µM)	relative viability (VX-11e + Crizotinib; first compound 0.1265 µM)	relative viability (VX-11e + Crizotinib; first compound 0.4 µM)	relative viability (VX-11e + Crizotinib; first compound 1.265 µM)	relative viability (VX-11e + Crizotinib; first compound 4 µM)	relative viability (VX-11e + Vorinostat; first compound 0.04 µM)	relative viability (VX-11e + Vorinostat; first compound 0.1265 µM)	relative viability (VX-11e + Vorinostat; first compound 0.4 µM)	relative viability (VX-11e + Vorinostat; first compound 1.265 µM)	relative viability (VX-11e + Vorinostat; first compound 4 µM)	relative viability (VX-11e + Navitoclax; first compound 0.04 µM)	relative viability (VX-11e + Navitoclax; first compound 0.1265 µM)	relative viability (VX-11e + Navitoclax; first compound 0.4 µM)	relative viability (VX-11e + Navitoclax; first compound 1.265 µM)	relative viability (VX-11e + Navitoclax; first compound 4 µM)	relative viability (VX-11e + Dasatinib; first compound 0.1265 µM)	relative viability (VX-11e + Dasatinib; first compound 0.4 µM)	relative viability (VX-11e + Dasatinib; first compound 1.265 µM)	relative viability (VX-11e + Dasatinib; first compound 4 µM)	relative viability (VX-11e + Dasatinib; first compound 0.04 µM)
HCC-78	0.351	0.307	0.353	0.285	0.285	0.479	0.42	0.358	0.482	0.405	0.878	0.69	0.769	0.455	0.762	0.412	0.411	0.382	0.44	
SW 1573	0.871	0.789	0.743	0.793	0.451		0.956	0.408	0.432	0.466	1.12	0.959	0.945	0.672	0.553	0.641	0.718	0.424	0.28	0.656
LK-2		0.275	0.394		0.243	0.223	0.323	0.268	0.297	0.227	0.893	0.732	0.781	0.738	0.86	0.344	0.244	0.155	0.257	0.25
NCI-H1437	1.05	0.957	0.853	0.974	0.487	0.82	0.864	0.82	0.739	0.458	1.11	1.05	1.07	0.815	0.52	0.329	0.161	0.218	0.16	0.292
HOP-62	0.887	0.863	0.978	0.76	0.428	0.519	0.59	0.345	0.201	0.158	0.992	0.891	1.02	0.46	0.582	0.652	0.663	0.457	0.242	0.685
HCC-15	0.904	0.747	0.64	0.449	0.264	0.96	0.752		0.534	0.26	0.711	0.649	0.53	0.317	0.196	0.52		0.243	0.148	0.66
NCI-H520	0.773	0.748	0.741	0.914	0.59	0.646	0.875	0.682	0.698	0.518	0.963	1.04	1	1.38	0.992	0.188	0.199	0.338	0.293	0.175
NCI-H322M	1.08		0.942	0.987	0.699	0.763	0.813	1.13	0.736	0.64	1.24		1.23	1.06	0.672	0.208	0.27	0.252	0.225	0.224
NCI-H2009	1.07	1.04	0.933	0.565	0.364	0.794	0.604	0.638	0.791	0.233	1.17	1.14	1.2	0.938	0.289	0.286	0.242	0.169	0.122	0.307
CAL-12T	0.697	0.632	0.633	0.543	0.394	0.634	0.724	0.649	0.84	0.285	1.14	1.3	1.09	1.2	0.422	0.34	0.249	0.243	0.111	0.466
A-427	0.92	0.721	0.55	0.688	0.311	0.868	0.928	1.01	0.89	0.504	0.999	0.88	0.796	0.585	0.268	0.574	0.488	0.232	0.114	0.751
LOU-NH91	0.706	0.71		0.773	0.639	0.889	0.79		0.626	0.781	0.751	0.692		0.593	0.581	0.514	0.372	0.489	0.471	0.534
HCC-366	0.605	0.476		0.561	0.184	0.314	0.332		0.105	0.199	1.22	1.02		0.993	0.708	0.612		0.434	0.241	0.736
NCI-H838	0.888	0.82	0.798	0.881	0.501	0.774	0.669	0.681	0.639	0.591	1.17	1.1	1.05	1.1	0.861	0.326	0.222	0.247	0.267	0.255
NCI-H1666	1.03	0.818	0.753	0.752	0.456	1.08	0.953		0.992	0.798	0.987	1.1	0.848	0.51	0.368	0.87	0.69	0.688	0.477	0.855
NCI-H1915	0.945	0.82	0.919	0.788	0.548	0.469	0.493	0.526	0.607	0.43	0.826	0.761	0.787	0.682	0.546	0.291	0.25	0.267	0.217	0.288
NCI-H2087	1.03	0.809	0.944	1.07	0.502	0.944	0.644		0.495	0.239	0.983	1	0.999	0.8	0.257	0.73		0.301	0.202	0.943
